Assay [1] concerns the target binding of RAGE tail (ctRAGE) to DIAPH1 (Homo sapiens (Human), UniProt Q15109). Nature of the assay: Primary screen (high-throughput): blocking of GFP RAGE tail binding to DIAPH1. The note with it: for inhibition at 10 µM: Table 1; for inhibition at 12.5 µM: Table 2. On the procedure:
[…] Compounds that reduced binding of RAGE tail (ctRAGE) by at least 50% were then selected and subjected to 4-point dose response (10 uM, 1 uM, 0.1 uM and 0.01 uM).
• Step 1. Add 50 μl anti-DIAPH1 (1:160 dilution in 0.1M NaHCO3 pH 9.6)/well. Incubate overnight at 4° C. Day 2 • Step 2. Use the plate washer to aspirate anti-DIAPH11 and wash plates 4× with PBS 100 μl per well per wash. • Step 3. Add 180 μl 3% BSA in 1×PBS. Incubate for 1.5 hrs at room temperature Step 4. Use the plate washer to aspirate the blocking solution and wash 5× with PBS 300 μl per well. • Step 5. Add 50 μl of DIAPH1 containing lysate (85 μg) and incubate at RT for 3 hours. • Step 6. Aspirate the lysate and wash the plate 5×(100 μl) on the plate washer. • Step 7. Add 25 μl PBS to the wells. • Step 8. Add 0.5 μL compound per well. • Step 9. Add 24.5 μL GFP RAGE tail (125 nM) into each well for 2 hrs at room temperature. • Step 10. Aspirate and wash 5× with PBS (100 μL) on the plate washer. • Step 11. Add 100 μl PBS in each well. • Step 12. Detection: Read on fluorescence plate reader excitation […] and 485 nm emission
Compounds that blocked the binding of RAGE tail to DIAPH1 by 50% or more were subjected to 4 point dose response: 10 μM, 1 μM, 0.1 μM and 0.01 μM.

The target in assay [2] is ctRAGE (Homo sapiens (Human), UniProt Q15109). Nature of the assay: Kd determinations (Tables 1 and 2). It counts as binding. To be noted: Table 2. On the procedure: Binding affinities of small molecules for either CT-RAGE or FH1 are determined by performing fluorescence titrations to generate binding isotherms and standard SPR experiments.
ctRAGE, sequence (Q15109 23-404 limits assumed): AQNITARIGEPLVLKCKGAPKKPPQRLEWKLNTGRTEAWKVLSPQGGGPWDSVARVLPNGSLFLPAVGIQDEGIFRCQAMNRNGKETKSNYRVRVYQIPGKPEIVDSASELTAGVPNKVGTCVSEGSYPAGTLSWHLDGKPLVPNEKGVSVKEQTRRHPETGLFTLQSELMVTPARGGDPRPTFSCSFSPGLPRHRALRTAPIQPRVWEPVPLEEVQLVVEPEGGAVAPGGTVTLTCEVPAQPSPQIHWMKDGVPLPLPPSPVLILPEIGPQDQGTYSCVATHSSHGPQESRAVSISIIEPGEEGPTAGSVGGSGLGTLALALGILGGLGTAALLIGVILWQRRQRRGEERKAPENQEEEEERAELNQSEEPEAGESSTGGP
A number of representative quinoline compounds of this invention are or can be tested for their inhibitory activity.

binding of RAGE tail (ctRAGE) to DIAPH1, sequence (Q15109 364-404): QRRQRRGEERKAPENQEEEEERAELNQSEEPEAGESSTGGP

On to `COC(=O)c1cc(-c2ccc(OC)cc2)nc2ccccc12` [Compound 1], for which, in assay [1], the inhibition (as a rule, the drop in the measured response relative to a control, in per cent) at 10 µM is 51%. Same read-out and setting: in the case of `COC(=O)c1cc(-c2ccccc2)nc2cc(C)ccc12` [Compound 2] it was 27%; in that of `CCCNC(=O)c1cc(-c2ccc(NC(=O)CC)cc2)nc2ccccc12` [Compound 3], 36%; in that of `CC(=O)Nc1ccc(-c2cc(C(=O)NCCN(C)C)c3ccccc3n2)cc1` [Compound 4, 2-(4-Acetamidophenyl)-N-(2-(dimethylamino)ethyl)quinoline-4-carboxamide], 45%. Same read-out and setting: under `CC(=O)Nc1ccc(-c2cc(C(=O)N3CCOCC3)c3ccccc3n2)cc1` [Compound 5, N-(4-(4-(Morpholine-4-carbonyl)quinolin-2-yl)phenyl)acetamide] stands 34%; under `COCCNC(=O)c1cc(-c2ccc(NC(C)=O)cc2)nc2ccccc12` [Compound 6], 17%.

The compound `CC(=O)Nc1ccc(-c2cc(C(=O)N3CCCC3)c3ccccc3n2)cc1` [Compound 7] showed an inhibition at 10 µM in assay [1] of 29%. On the same count and under the same terms, in the case of `COC(=O)c1cc(-c2ccncc2)nc2ccccc12` [Compound 8] it was 64%; in that of `CC(=O)Nc1ccc(-c2cc(C(=O)O)c3ccccc3n2)cc1` [Compound 9], 25%. Compound `COC(=O)c1cc(-c2ccccc2C)nc2ccccc12` [Compound 10] registered an inhibition at 10 µM in assay [1] of 28%. In turn, `CNC(=O)c1cc(-c2ccc(C)cc2)nc2ccccc12` [Compound 11] came in with an inhibition at 10 µM in assay [1] of 34%. Consider `CC(=O)Nc1ccc(-c2cc(C(=O)N3CCOCC3)c3cccc(Cl)c3n2)cc1` [Compound 101, N-(4-(8-Chloro-4-(morpholine-4-carbonyl)quinolin-2-yl)phenyl)acetamide], for which at 12.5 µM the inhibition in assay [1] was 27%. The Kd (in general, the free concentration of one partner at which half of the binding sites on the other are occupied at equilibrium, for simple one-to-one binding) in assay [2] came out at 43 µM. `CC(=O)Nc1ccc(-c2cc(C(=O)N3CCOCC3)c3cccc(Cl)c3n2)cn1` [Compound 102, N-(5-(8-Chloro-4-(morpholine-4-carbonyl)quinolin-2-yl)pyridin-2-yl)acetamide] displayed an inhibition at 12.5 µM in assay [1] of 37%. The same compound returned a Kd in assay [2] of 29 µM.

`CC(=O)Nc1ccc(-c2cc(C(=O)N3CCOCC3)c3cccc(Cl)c3n2)nc1` [Compound 103, N-(6-(8-Chloro-4-(morpholine-4-carbonyl)quinolin-2-yl)pyridin-3-yl)acetamide] displayed an inhibition at 12.5 µM in assay [1] of 38%. The compound further yielded a Kd in assay [2] of 18 µM. For `CC(=O)Nc1ccc(-c2cc(C(=O)N3CCOCC3)c3cc(Cl)ccc3n2)cc1` [Compound 104, N-(4-(6-Chloro-4-(morpholine-4-carbonyl)quinolin-2-yl)phenyl)acetamide], in that order: 37% and 60 µM. In assay [1], `CC(=O)Nc1ccc(-c2cc(C(=O)N3CCOCC3)c3cc(Cl)ccc3n2)cn1` [Compound 105, N-(5-(6-Chloro-4-(morpholine-4-carbonyl)quinolin-2-yl)pyridin-2-yl)acetamide] gave an inhibition at 12.5 µM of 32%. The Kd in assay [2] was 45 µM. The like results for `CC(=O)Nc1ccc(-c2cc(C(=O)N3CCOCC3)c3cc(Cl)ccc3n2)nc1` [Compound 106, N-(6-(6-Chloro-4-(morpholine-4-carbonyl)quinolin-2-yl)pyridin-3-yl)acetamide] were, in that order, 35% and 34 µM. For `CC(=O)Nc1ccc(-c2cc(N3CCOCC3)c3ccccc3n2)cc1` [Compound 107, N-(4-(4-Morpholinoquinolin-2-yl)phenyl)acetamide], in that order: 31% and 44 µM. The like results for `CC(=O)Nc1ccc(-c2cc(CN3CCOCC3)c3ccccc3n2)cc1` [Compound 108, N-(4-(4-(Morpholinomethyl)quinolin-2-yl)phenyl)acetamide] were, in that order, 44% and 11 µM. Regarding `CC(=O)Nc1ccc(-c2cc(CN3CCOCC3)c3ccccc3n2)nc1` [Compound 109, N-(6-(4-(Morpholinomethyl)quinolin-2-yl)pyridin-3-yl)acetamide], in assay [1], the inhibition at 12.5 µM was 20%. The same compound gave a Kd in assay [2] of 1.9 µM.

In the case of `CC(=O)Nc1ccc(-c2cc(CN3CCOCC3)c3cccc(Cl)c3n2)cc1` [Compound 110, N-(4-(8-Chloro-4-(morpholinomethyl)quinolin-2-yl)phenyl)acetamide], in assay [1], testing at 12.5 µM gave an inhibition of 20%. On the same count and under the same terms, in the case of `CC(=O)Nc1ccc(-c2cc(CN3CCOCC3)c3cccc(Cl)c3n2)nc1` [Compound 111, N-(6-(8-Chloro-4-(morpholinomethyl)quinolin-2-yl)pyridin-3-yl)acetamide] it was 18%; in that of `CC(=O)Nc1ccc(-c2cc(C(C)N3CCOCC3)c3ccccc3n2)cc1` (centres unmarked) [Compound 112, N-(4-(4-(1-Morpholinoethyl)quinolin-2-yl)phenyl)acetamide], 27%.

The record behind these values is patent publication US11192859B2, “Quinoline compounds as modulators of RAGE activity and uses thereof” (NEW YORK UNIVERSITY, priority 2016, dated 2021).
